Where a SMILES comes first, the peptide text is derived from it.
Columns and labels:
Experiment in all cases: HLA class I binding assay (cell-free competition, fluorescence polarization)
HLA B*4402 = HLA B*4402 (Homo sapiens, UniProt P01889, A223V/A65T/A93T/A95T/D201E/D98Y/E176V/E187L/E204Q/E69K/G107R/H137Y/K202T/L105A/L119I/N104T/N87E/Q56L/Q94N/R106L/R155S/R180D/S101N/S121R/S35A/S48T/T118I/V36M/W191S/Y140D/Y91S)
HLA A*2402 = HLA A*2402 (Homo sapiens, UniProt P04439, D101N/D140Y/D185E/E176V/E190D/F33S/G103R/G107R/I119L/I121M/I306V/K335N/L105A/L180Q/L300P/N151K/N90K/Q86E/Q94H/R106L/R138H/R89G/T104I/T345S/V100E/W191G/Y123F)
HLA A*0201 = HLA A*0201 (Homo sapiens, UniProt P04439, D140Y/D185E/D98H/E176V/E277Q/G131W/G231S/I119V/I121R/I166T/I218V/L300P/L318F/N151K/N90K/P208A/P217A/Q86G/Q94H/R138H/R169H/T345S)

Compound	IC50 (HLA B*4402)	IC50 (HLA A*2402)	IC50 (HLA A*0201)
CC[C@H](C)[C@H](NC(=O)[C@H](CC(C)C)NC(=O)[C@H](CC(=O)O)NC(=O)[C@H](CC(N)=O)NC(=O)[C@H](CCCNC(=N)N)NC(=O)[C@H](CO)NC(=O)[C@@H](NC(=O)[C@H](CCC(=O)O)NC(=O)[C@H](C)N)[C@@H](C)CC)C(=O)O (H-AEISRNDLI-OH)	4.53 µM		
CC[C@H](C)[C@H](NC(=O)[C@H](CCC(N)=O)NC(=O)[C@@H](NC(=O)[C@H](C)NC(=O)[C@H](CCCCN)NC(=O)[C@H](CC(C)C)NC(=O)[C@H](CC(N)=O)NC(=O)[C@H](CCC(=O)O)NC(=O)[C@@H](N)CC(=O)O)[C@@H](C)CC)C(=O)O (H-DENLKAIQI-OH)	91.3 µM		
CC(C)C[C@H](NC(=O)[C@H](CC(N)=O)NC(=O)[C@H](CCC(=O)O)NC(=O)[C@@H](N)CCC(=O)O)C(=O)N[C@@H](Cc1ccccc1)C(=O)N[C@@H](CCC(=O)O)C(=O)N[C@@H](Cc1c[nH]c2ccccc12)C(=O)N[C@@H](CO)C(=O)N[C@@H](CCCCN)C(=O)N[C@H](C(=O)O)[C@@H](C)O (H-EENLFEWSKT-OH; N-terminus assumed)	> 1000 µM		
CC[C@H](C)[C@H](N)C(=O)N[C@@H](CCC(=O)O)C(=O)N[C@@H](CC(N)=O)C(=O)N[C@@H](CC(N)=O)C(=O)N[C@@H](CC(C)C)C(=O)N[C@@H](Cc1ccc(O)cc1)C(=O)N[C@@H](CCC(=O)O)C(=O)N[C@@H](CCCNC(=N)N)C(=O)N[C@@H](CC(C)C)C(=O)O (H-IENNLYERL-OH)	60.1 µM		
CC[C@H](C)[C@H](N)C(=O)N[C@@H](Cc1ccc(O)cc1)C(=O)NCC(=O)N[C@@H](CCCCN)C(=O)NCC(=O)NCC(=O)N[C@@H](Cc1ccccc1)C(=O)N[C@@H](CCC(N)=O)C(=O)N[C@@H](Cc1ccccc1)C(=O)O (H-IYGKGGFQF-OH)		0.163 µM	
CC[C@H](C)[C@H](NC(=O)[C@H](CCC(=O)O)NC(=O)[C@H](CCCCN)NC(=O)[C@H](CCC(=O)O)NC(=O)[C@H](CCC(=O)O)NC(=O)[C@@H](N)CCCCN)C(=O)N[C@@H](CC(N)=O)C(=O)N[C@@H](CC(=O)O)C(=O)N[C@@H](CCC(=O)O)C(=O)N[C@@H](Cc1ccc(O)cc1)C(=O)O (H-KEEKEINDEY-OH; N-terminus assumed)	> 1000 µM		
CC[C@H](C)[C@H](NC(=O)[C@@H](NC(=O)[C@@H](NC(=O)[C@H](Cc1c[nH]cn1)NC(=O)[C@H](CC(=O)O)NC(=O)[C@H](CCCCN)NC(=O)[C@H](CCCCN)NC(=O)[C@H](CCC(=O)O)NC(=O)[C@@H](N)CCCCN)[C@@H](C)CC)C(C)C)C(=O)O (H-KEKKDHIVI-OH)	64.6 µM		
CC[C@H](C)[C@H](NC(=O)[C@H](CCC(=O)O)NC(=O)[C@H](CC(N)=O)NC(=O)[C@H](CC(C)C)NC(=O)[C@H](CC(C)C)NC(=O)[C@@H]1CCCN1C(=O)[C@@H]1CCCN1C(=O)[C@H](CC(C)C)NC(=O)[C@@H](N)CCCCN)C(=O)O (H-KLPPLLNEI-OH)		0.0887 µM	2.66 µM
CC[C@H](C)[C@H](NC(=O)[C@@H]1CCCN1C(=O)[C@H](Cc1ccc(O)cc1)NC(=O)[C@H](CCC(N)=O)NC(=O)[C@H](CC(=O)O)NC(=O)[C@H](CO)NC(=O)[C@H](CCCCN)NC(=O)[C@H](CCSC)NC(=O)[C@@H](N)CCCCN)C(=O)O (H-KMKSDQYPI-OH)		6.9 µM	3.07 µM
CC[C@H](C)[C@H](NC(=O)[C@H](CCCNC(=N)N)NC(=O)[C@@H]1CCCN1C(=O)[C@H](CC(=O)O)NC(=O)[C@H](Cc1ccc(O)cc1)NC(=O)[C@@H](N)CCCCN)C(=O)N[C@@H](CO)C(=O)NCC(=O)N[C@@H](Cc1c[nH]c2ccccc12)C(=O)O (H-KYDPRISGW-OH)		5.01 µM	
CC(C)C[C@H](N)C(=O)N[C@@H](Cc1ccccc1)C(=O)NCC(=O)N[C@@H](CC(=O)O)C(=O)N[C@@H](CCC(=O)O)C(=O)N[C@@H](CC(N)=O)C(=O)N[C@@H](Cc1ccccc1)C(=O)N[C@@H](CO)C(=O)N[C@@H](Cc1ccccc1)C(=O)O (H-LFGDENFSF-OH)		5.87 µM	
CC[C@H](C)[C@H](NC(=O)[C@H](Cc1ccccc1)NC(=O)[C@H](CCC(=O)O)NC(=O)[C@@H](NC(=O)[C@H](CC(=O)O)NC(=O)[C@H](CCC(=O)O)NC(=O)[C@H](CC(N)=O)NC(=O)[C@H](CCC(=O)O)NC(=O)[C@@H](N)CCSC)C(C)C)C(=O)O (H-MENEDVEFI-OH)	36.9 µM		
CSCC[C@H](N)C(=O)N[C@@H](Cc1ccc(O)cc1)C(=O)N[C@@H](Cc1c[nH]cn1)C(=O)N[C@@H](CC(N)=O)C(=O)N[C@@H](CCCCN)C(=O)N[C@@H](CCC(=O)O)C(=O)N[C@@H](Cc1ccccc1)C(=O)N[C@@H](CC(=O)O)C(=O)N[C@@H](Cc1ccccc1)C(=O)O (H-MYHNKEFDF-OH)		4.51 µM	
CC[C@H](C)[C@H](NC(=O)[C@H](CCC(=O)O)NC(=O)[C@H](CCC(=O)O)NC(=O)[C@@H](N)CC(N)=O)C(=O)N[C@H](C(=O)N[C@@H](CC(=O)O)C(=O)N[C@@H](CC(C)C)C(=O)N[C@@H](CC(C)C)C(=O)N[C@@H](CC(N)=O)C(=O)N[C@@H](CC(C)C)C(=O)O)[C@@H](C)CC (H-NEEIIDLLNL-OH)	433 µM		
C[C@@H](O)[C@H](NC(=O)[C@H](CC(N)=O)NC(=O)[C@H](CC(N)=O)NC(=O)[C@H](CCC(=O)O)NC(=O)[C@@H](N)CC(N)=O)C(=O)N[C@H](C(=O)N[C@@H](Cc1ccc(O)cc1)C(=O)N[C@@H](CCC(N)=O)C(=O)N[C@@H](Cc1ccc(O)cc1)C(=O)O)[C@@H](C)O (H-NENNTTYQY-OH)	18.4 µM		
CSCC[C@H](NC(=O)[C@@H](N)CC(N)=O)C(=O)N[C@@H](CC(N)=O)C(=O)N[C@@H](Cc1ccc(O)cc1)C(=O)N[C@@H](CCCCN)C(=O)N[C@@H](CCC(N)=O)C(=O)N[C@@H](CC(N)=O)C(=O)N[C@@H](CC(N)=O)C(=O)N[C@@H](Cc1ccccc1)C(=O)O (H-NMNYKQNNF-OH)		14.7 µM	
NCCCC[C@H](NC(=O)[C@H](Cc1ccc(O)cc1)NC(=O)[C@@H](N)CC(N)=O)C(=O)N[C@@H](CCC(N)=O)C(=O)N[C@@H](CC(N)=O)C(=O)N[C@@H](CC(N)=O)C(=O)N[C@@H](Cc1ccccc1)C(=O)N1CCC[C@H]1C(=O)N[C@@H](Cc1ccccc1)C(=O)O (H-NYKQNNFPF-OH)		9.49 µM	
CC[C@H](C)[C@H](NC(=O)[C@H](CC(N)=O)NC(=O)[C@H](Cc1ccc(O)cc1)NC(=O)[C@H](CCC(N)=O)NC(=O)[C@H](CC(=O)O)NC(=O)[C@H](CC(N)=O)NC(=O)[C@H](CC(N)=O)NC(=O)[C@H](Cc1ccc(O)cc1)NC(=O)[C@@H](N)CC(N)=O)C(=O)O (H-NYNNDQYNI-OH)		6.54 µM	
CC(C)C[C@H](NC(=O)[C@H](Cc1ccccc1)NC(=O)[C@@H]1CCCN1)C(=O)N[C@@H](CCCCN)C(=O)N[C@@H](CO)C(=O)NCC(=O)N[C@@H](Cc1ccccc1)C(=O)N[C@H](C(=O)N[C@@H](Cc1ccccc1)C(=O)O)[C@@H](C)O (H-PFLKSGFTF-OH)		8.32 µM	
C[C@@H](O)[C@H](NC(=O)[C@H](CC(N)=O)NC(=O)[C@H](Cc1ccc(O)cc1)NC(=O)[C@@H](NC(=O)[C@H](CO)NC(=O)[C@@H](NC(=O)[C@H](CO)NC(=O)[C@H](CCC(=O)O)NC(=O)[C@@H](N)CO)[C@@H](C)O)[C@@H](C)O)C(=O)O (H-SESTSTYNT-OH)	103 µM		
N=C(N)NCCC[C@H](NC(=O)[C@H](Cc1ccc(O)cc1)NC(=O)[C@H](CCCCN)NC(=O)[C@@H]1CCCN1C(=O)[C@H](Cc1c[nH]cn1)NC(=O)[C@@H](N)CO)C(=O)N[C@@H](CC(N)=O)C(=O)N[C@@H](Cc1ccccc1)C(=O)N[C@@H](CCCCN)C(=O)N[C@@H](Cc1ccccc1)C(=O)O (H-SHPKYRNFKF-OH)		16.6 µM	
CC[C@H](C)[C@H](NC(=O)[C@H](CC(C)C)NC(=O)[C@@H](NC(=O)[C@@H](N)CO)[C@@H](C)CC)C(=O)N[C@@H](CO)C(=O)N[C@@H](CCCNC(=N)N)C(=O)N[C@@H](CC(C)C)C(=O)N[C@H](C(=O)N[C@@H](CC(C)C)C(=O)O)[C@@H](C)O (H-SILISRLTL-OH; N-terminus assumed)	> 1000 µM		
CC[C@H](C)[C@H](NC(=O)[C@H](CO)NC(=O)[C@H](Cc1ccc(O)cc1)NC(=O)[C@@H](N)[C@@H](C)O)C(=O)N[C@@H](Cc1ccc(O)cc1)C(=O)N[C@H](C(=O)N[C@@H](CC(N)=O)C(=O)N[C@@H](Cc1ccccc1)C(=O)N[C@@H](CCCCN)C(=O)N[C@@H](CC(N)=O)C(=O)O)[C@@H](C)O (H-TYSIYTNFKN-OH)		26.6 µM	
C[C@@H](O)[C@H](NC(=O)[C@H](Cc1ccc(O)cc1)NC(=O)[C@H](CCCCN)NC(=O)[C@H](Cc1ccc(O)cc1)NC(=O)[C@@H](N)Cc1c[nH]c2ccccc12)C(=O)N[C@@H](CCC(=O)O)C(=O)N[C@@H](CO)C(=O)N[C@@H](CC(=O)O)C(=O)N[C@@H](Cc1ccccc1)C(=O)O (H-WYKYTESDF-OH)		2.51 µM	
CC(C)[C@H](NC(=O)[C@H](Cc1ccccc1)NC(=O)[C@H](CCC(N)=O)NC(=O)[C@H](Cc1ccccc1)NC(=O)CNC(=O)CNC(=O)[C@H](CCCCN)NC(=O)CNC(=O)[C@@H](N)Cc1ccc(O)cc1)C(=O)N[C@@H](Cc1ccccc1)C(=O)O (H-YGKGGFQFVF-OH)		0.231 µM	
CC[C@H](C)[C@H](NC(=O)[C@H](Cc1ccc(O)cc1)NC(=O)[C@@H]1CCCN1C(=O)[C@@H]1CCCN1C(=O)[C@H](CC(C)C)NC(=O)CNC(=O)[C@@H](NC(=O)[C@@H](NC(=O)[C@@H](N)Cc1ccc(O)cc1)[C@@H](C)O)[C@@H](C)CC)C(=O)O (H-YTIGLPPYI-OH)		6.57 µM	2.46 µM
CC[C@H](C)[C@H](NC(=O)[C@@H](NC(=O)[C@@H]1CCCN1C(=O)[C@H](Cc1ccc(O)cc1)NC(=O)[C@@H](N)Cc1ccc(O)cc1)[C@@H](C)CC)C(=O)N[C@@H](CCCNC(=N)N)C(=O)N[C@@H](CCCCN)C(=O)N[C@@H](CCC(N)=O)C(=O)N[C@@H](Cc1ccccc1)C(=O)O (H-YYPIIRKQF-OH)		0.101 µM	

— publication PMC8138313, “Identification, Selection and Immune Assessment of Liver Stage CD8 T Cell Epitopes From Plasmodium falciparum” (Frontiers in Immunology, 2021)
